pIC50: −log10 of the molar value. Structures can show the parent of a compound that is named as a salt. Where two headings read alike, the source gives them in different places.
Tests used:
[1] = test system: primary rat microglia; assay: Cell toxicity (dead cells, size <150 μm2) in coated fibrin (cFib) assay; settings: for Fibrin % cell toxicity: primary microglia HTS, fibrin stimulation, decreased size (<150 μm^2) as marker of toxicity;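 for Fibrin % cell toxicity: share of dead cells sized under 150 µm2 at 10 µM in fibrin-stimulated microglia HTS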
[2] = in vitro; settings: rat, Cell Toxicity IC50 (uM) [cFib assay]
[3] = test system: primary rat microglia; assay: Cell toxicity (dead cells, size <150 μm2) in LPS assay; settings: for IC50: read-out: Cell Toxicity IC50 (uM) [LPS assay], LPS assay; for LPS % cell toxicity: primary microglia HTS, LPS stimulation, decreased size (<150 μm^2) as marker of toxicity
[4] = test system: LPS-induced microglia activation; assay: Image-based assay of LPS-induced microglia activation (HTS and dose response); type: cell-based, rat; settings: Rattus norvegicus, Microglia; for inhibition at 10 µM: read-out: LPS % inhibition; for IC50: read-out: LPS IC50 (uM) (Suppl. Table 7)
[5] = test system: fibrin-induced microglia activation; assay: Image-based assay of fibrin-induced microglia activation (HTS and dose response); type: cell-based, rat; settings: for pIC50 / IC50 / inhibition at 10 µM: Rattus norvegicus, Microglia; for IC50: read-out: Fibrin IC50 (uM) (Suppl. Table 7); for inhibition at 10 µM: read-out: Fibrin % inhibition
[6] = test system: fibrin- and LPS-induced microglia activation; assay: cells; type: cell-based, rat; settings: for inhibition at 10 µM: Rattus norvegicus
[7] = in vitro; settings: rat
[8] = 48 h, Table 1, dose response 0.001-20 μM, triplicates, primary rat microglia, 48 h, read-out: LPS IC50
[9] = 48 h, primary microglia HTS, LPS stimulation, increased cell size (>800 μm^2) as marker of activation
[10] = LPS-induced microglia activation, dose response
[11] = dose response, LPS-induced microglia activation, read-out: LPS IC50
[12] = 48 h, Table 1, dose response 0.001-20 μM, triplicates, primary rat microglia, 48 h, read-out: Fibrin IC50
[13] = dose response, fibrin-induced microglia activation, read-out: Fibrin IC50
[14] = fibrin-induced microglia activation, dose response
[15] = primary microglia HTS, fibrin stimulation, increased cell size (>800 μm^2) as marker of activation
[16] = HTS of 1907 compounds, quadrant by fibrin and LPS inhibition
[17] = Microglia, Table 3, read-out: Cherry-picked Hit (Suppl. Table 7)
[18] = Microglia, HTS hit classification, read-out: Hit
[19] = quadrant by fibrin and LPS inhibition in HTS of 1907 compounds
[20] = hit classification in microglia HTS, read-out: Cherry-picked Hit (Suppl. Table 7)

SMILES	IC50 ([2]; Table 3) [µM]	IC50 ([2]; cFib assay) [µM]	IC50 [3] [µM]	pIC50 [4, 8]	inhibition at 10 µM [4, 9] [%]	IC50 [4, 10] [µM]	IC50 ([4]; Table 3) [µM]	pIC50 [4, 11]	pIC50 [5, 12]	pIC50 [5, 13]	IC50 [5, 14] [µM]	inhibition at 10 µM [5, 15] [%]	Quadrant (FIG. 5b) [6, 16]	inhibition at 10 µM [6, 18] [%]	Quadrant (FIG. 5b) ([6]; Table 1, screen at 10 μM)	Quadrant (FIG. 5b) [6, 19]	pIC50 [7]	Fibrin % cell toxicity [1] [%]	LPS % cell toxicity [3] [%]	inhibition at 10 µM [6, 20] [%]	other results
C[C@H]1C[C@H]2[C@@H]3CCC4=CC(=O)C=C[C@]4(C)[C@@]3(F)[C@@H](O)C[C@]2(C)[C@@]1(O)C(=O)CO [Betamethasone, reference compound]	> 20	> 20	> 20	8.00	94	0.01	0.01	8.00	> 9.00	> 9.00	< 0.001	103	Q2	> 50	Q2	Q2	< 4.70	–	–	–	IC50 ([1]; Rattus norvegicus, Microglia, read-out: dead_IC50 (uM), Table 7, fibrin or LPS assay not specified): 2.08 µM; pIC50 ([4]; Table 7, read-out: LPS_IC50): 8.70; inhibition at 10 µM ([4]; primary HTS, 10 μM, LPS-stimulated primary microglia): -9%; IC50 ([5]; Table 3): < 0.001 µM; pIC50 ([5]; Table 7, read-out: fib_IC50): 8.70; inhibition at 10 µM ([5]; primary HTS, 10 μM, fibrin-stimulated primary microglia): -4%; inhibition at 10 µM [6, 17]: > 50%; Quadrant (FIG. 5b) ([6]; Table 2, screen at 10 μM): Q2; Quadrant (FIG. 5b) ([6]; Table 3, screen at 10 μM): Q2; Quadrant (FIG. 5b) ([6]; primary HTS, 10 μM): Q4
CC(=O)OCC(=O)[C@@]1(O)CC[C@H]2[C@@H]3CCC4=CC(=O)C=C[C@]4(C)[C@@]3(Cl)[C@@H](Cl)C[C@@]21C [Dichlorisone acetate, reference compound]	> 20	> 20	> 20	5.40	74	4	4	5.40	7.52	7.52	0.03	108	Q2	> 50	Q2	Q2	< 4.70	3	1	–	IC50 ([2]; cFib assay, Table 6): > 20 µM; IC50 ([3]; Table 6): > 20 µM; IC50 ([4]; Table 6): 4 µM; Fibrin Selectivity [5]: 169; Fibrin Selectivity (LOG10) [5]: 2.23; IC50 ([5]; Table 3): 0.03 µM; IC50 ([5]; Table 6): 0.03 µM; inhibition at 10 µM [6, 17]: > 50%; Quadrant (FIG. 5b) ([6]; Table 3, screen at 10 μM): Q2; Quadrant (FIG. 5b) ([6]; microglia HTS, Table 6): Q2
O=P(O)(O)C(O)(Cc1cccnc1)P(=O)(O)O [Risedronate sodium, reference compound]	–	> 20	–	< 4.70	16	> 20	–	< 4.70	4.72	4.72	19	81	Q3	> 50	Q3	Q3	< 4.70	2	0	> 50	–
C[C@]12C=CC(=O)C=C1CC[C@H]1[C@@H]3C[C@@H](O)[C@](O)(C(=O)CO)[C@@]3(C)C[C@H](O)[C@@]12F [Triamcinolone, reference compound]	> 20	> 20	> 20	6.40	99	0.4	0.4	6.40	7.40	7.40	0.04	107	–	> 50	Q2	Q2	< 4.70	–	–	–	inhibition at 10 µM ([4]; primary microglia HTS, 10 μM, LPS-stimulated, cell size >800 μm^2 as marker of activation): -14%; Fibrin Selectivity [5]: 10; Fibrin Selectivity (LOG10) [5]: 1.00; IC50 ([5]; Table 3): 0.04 µM; inhibition at 10 µM ([5]; primary microglia HTS, 10 μM, fibrin-stimulated, cell size >800 μm^2 as marker of activation): -2%; inhibition at 10 µM [6, 17]: > 50%; Quadrant (FIG. 5b) ([6]; Table 3, screen at 10 μM): Q2
C=N[C@@H](C(=O)N[C@@H]1C(=O)N2[C@@H]1SC(C)(C)[C@@H]2C(=O)O)c1ccccc1 [Metampicillin sodium, reference compound]	–	> 20	–	< 4.70	35	> 20	–	< 4.70	4.70	4.70	20	68	Q3	> 50	Q3	Q3	< 4.70	1	0	> 50	–
CC(=O)O[C@]1(C(C)=O)CC[C@H]2[C@@H]3C=C(Cl)C4=CC(=O)CC[C@]4(C)[C@H]3CC[C@@]21C [Chlormadinone acetate, reference compound]	–	> 20	–	< 4.70	43	> 20	–	< 4.70	–	–	–	72	Q3	> 50	Q3	Q3	< 4.70	1	0	> 50	–
CC(CCc1ccc(O)cc1)NCC(O)c1ccc(O)cc1 (centres unmarked) [Ractopamine hydrochloride, reference compound]	–	> 20	–	< 4.70	39	> 20	–	< 4.70	4.70	4.70	20	50	Q3	> 50	Q3	Q3	< 4.70	1	0	> 50	–
CC1(C)O[C@@H]2C[C@H]3[C@@H]4C[C@H](F)C5=CC(=O)C=C[C@]5(C)[C@H]4[C@@H](O)C[C@]3(C)[C@]2(C(=O)CO)O1 [Flunisolide, reference compound]	–	> 20	–	> 9.00	101	< 0.001	–	> 9.00	> 9.00	> 9.00	< 0.001	104	Q2	> 50	Q2	Q2	< 4.70	–	–	> 50	–
CC[C@@]1(O)C(=O)OCc2c1cc1n(c2=O)Cc2cc3c([N+](=O)[O-])cccc3nc2-1 [Rubitecan, reference compound]	> 20	> 20	> 20	5.05	30	9	9	5.05	5.70	5.70	2	73	Q3	> 50	Q3	Q3	< 4.70	–	–	–	IC50 ([5]; Table 3): 2 µM; inhibition at 10 µM [6, 17]: > 50%; Quadrant (FIG. 5b) ([6]; Table 3, screen at 10 μM): Q3
C[C@@H]1C[C@H]2[C@@H]3CCC4=CC(=O)C=C[C@]4(C)[C@@]3(F)[C@@H](O)C[C@]2(C)[C@@]1(O)C(=O)CO [Dexamethasone, reference compound]	–	> 20	–	< 4.70	–	> 20	–	< 4.70	4.82	4.82	15	–	Q3	> 50	Q3	–	< 4.70	–	–	> 50	pIC50 ([4]; Table 7, read-out: LPS_IC50): 8.70; pIC50 ([5]; Table 7, read-out: fib_IC50): 8.70; Quadrant (FIG. 5b) ([6]; Table 2, screen at 10 μM): Q3
